Test results reported in US10137169B2, “Compositions and uses thereof” (FOLLICUM AB, priority 2011, dated 2018).
“Also recorded” adds a separate entry of the source.

Experiments:
Mice (C57BL/6) [1] = assay: In vivo study of hair growth effect in mice of the wildtype osteopontin fragment (Example C); parameters: Hair growth score, Mean: scale not given here; settings: for Hair growth score, Mean: mean of 6 animals
Method: Animals, as described above in Example B, were treated as described in Table 6:
• This sequence is a fragment of wildtype mouse osteopontin, and corresponds to the region of the protein from which “FOL-004” is derived (i.e. “FOL-004” is a mutated version of wildtype fragment “FOL-001”). • Animals were administered the specified treatment on Days 1, 5 and 9 • Treatment were administered by subcutaneous injection into dorsal clipped skin Scoring Criteria • The effect of the treatments was observed and scored daily as described in Example B. Results

male wtC57BL/6N mice = assay: In vivo study of hair follicle density in mouse skin after intracutaneous injection (Example A); settings: data not shown
Text: The modified osteopontin polypeptide sequence SEQ ID NO:1 was cloned into a pCEP4 expression vector by the use of XhoI and BamHI restriction enzyme sites. The pCEP4 expression vector contains an ampicillin resistance gene for expression in bacteria and a hygromycin resistance gene for expression in eukaryotic EBNA cells. The polypeptide containing vector were transformed into competent XL-10 bacteria cells, multiplied and isolated with Qiagen midi prep kit. Isolated vectors were then transfected into human EBNA cells by the use of Fugene transfection reagent according to manufacture protocol (Invitrogen).
Medium from EBNA cell culture containing the produced polypeptide were collected after three to four days of culture. Polypeptides produced by pCEP4 plasmid contain an inserted His-tag, which is used to facilitate the isolation with Ni-sepharose gel chromatography (Invitrogen). Collected medium was diluted with binding buffer (20 mM sodium phosphate, 500 mM sodium chloride, pH 7.8), Ni-sepharose suspension was added before incubation on shaker overnight at 4° C. […]
Protocol for Hematoxylin-staining of paraffin-embedded sections of Group 1 1. […] Mount slide using Permount and coveslip. a) the time depends on the type of hematoxylin used, 20 sec to 10 min (which can be determined by the use of test slides) b) filtrated before use Results

Mice (C57BL/6) [2] = assay: Histological analysis of peeled skin: follicle count in subcutis and skin thickness (Example D); type: in vivo; parameters: Skin thickness: unit not given here; settings: Mean ± sem, day 16, 60 nM
Method: (§1) Animals and treatments are as described above in Example B.
(§2) All animals were sacrificed on day 16.
Peeled skin sections were prepared for histological analysis as described in Example A. Follicle count in the subcutis and skin thickness were then measured.
(§3) In the present study, the animals were preselected for pink skin (telogen phase) and the test polypeptide was administered by subcutaneous/topical route. A good hair growth promoter triggers the transition from the resting telogen phase to the active anagen phase, and thus a transition from light skin to dark skin. This dark pigmentation may result from the collection of melanin in the hair follicles, in preparation for new hair growth during the anagen phase. Melanin synthesis of follicular melanocytes is strictly coupled to the anagen phase, ceases during catagen and is absent in telogen phase. […] Upon termination, the dorsal skin of the animals was then excised out by peeling and the peeled skin reversed and observed for the induction of melanogenesis indicated by visual blackening. […] A good hair growth promoter increases no. of follicles in sub cutis and skin thickness.

Mice (C57BL/6) [3] = assay: Observation of melanogenesis / anagen induction, external and peeled skin (Example D); type: in vivo; settings: 60 nM; for Black colour in peeled skin (day 16): animals out of 5; for % anagen induction**: with respect to black colour in peeled skin; for Black colour in peeled skin (day 16) / % anagen induction**: day 16; for % anagen induction*: with respect to external skin colour change from pink to black
Text: as §1, §2
Following completion of the term of hair growth assessment for Example B, the animals were euthanized and dorsal skin peeled and removed for observation of the internal surface.
The hair growth cycle consists of three phases: a resting telogen phase (C57BL/6 skin is a pale pink colour), an active hair growth anagen phase (where the skin becomes dark gray or black), and finally a catagen phase (where hair growth stops, and the skin transitions back to the telogen phase, returning to a pale pink colour).
as §3

Mice (C57BL/6) [4] = assay: In vivo study of hair growth effect in mice, hair growth score (Example B); parameters: Hair growth score / Hair growth score, Mean: scale not given here; settings: for day from which hair growth was evident / hair growth effect / Hair growth score, Mean: 60 nM s.c. on Days 1, 5 and 9; for hair growth effect: assessment to day 16; for Hair growth score, Mean: mean of 5 animals
Method: Mice (C57BL/6) were used at an age of 6 to 8 weeks.
• Selection of animals in telogen phase of hair growth. • Clipping of dorsal back of animals • Subcutaneous injection of test peptide/vehicle • Visual analysis: Percentage anagen induction; Mean hair growth score; Visual melanogenesis: • Histological analysis: Follicle count in subcutis; Morphometry for skin thickness. Treatment Groups • Animals were assigned randomly to treatment groups (see Table 3)
• Animals were administered the specified treatment on Days 1, 5 and 9 • Treatment were administered by subcutaneous injection into dorsal clipped skin Scoring Criteria • The effect of the treatments was observed and scored daily according to the criteria in Table 4

With “VDVPNGRGDSLAYGLR (FOL-001) [fragment of wildtype mouse osteopontin, region from which FOL-004 is derived]” the “day at which hair growth effect became evident” value (Mice (C57BL/6) [1]; 60 nM s.c. on Days 1, 5 and 9) was roughly 9 days, the “hair growth effect” value (Mice (C57BL/6) [1]; 60 nM s.c. on Days 1, 5 and 9) was “delayed but detectable hair growth effect” and the “plateau of hair growth score” value (Mice (C57BL/6) [1]; 60 nM s.c. on Days 1, 5 and 9) was “about 1.3”. The “hair growth effect” value (Mice (C57BL/6) [1]; 60 nM s.c. on Days 1, 5 and 9, listed as equivalent non-mutated wild type sequence) was “delayed onset of hair growth stimulation”, the “Hair growth score, Mean” value (Mice (C57BL/6) [1]; Day 1, 60 nM s.c. on Days 1, 5 and 9) was 0 and the “Hair growth score, Mean” value (Mice (C57BL/6) [1]; Day 2, 60 nM s.c. on Days 1, 5 and 9) was 0. The “Hair growth score, Mean” value (Mice (C57BL/6) [1]; Day 5, 60 nM s.c. on Days 1, 5 and 9) was 0.17, the “Hair growth score, Mean” value (Mice (C57BL/6) [1]; Day 6, 60 nM s.c. on Days 1, 5 and 9) was 0.17 and the “Hair growth score, Mean” value (Mice (C57BL/6) [1]; Day 7, 60 nM s.c. on Days 1, 5 and 9) was 0.17. The “Hair growth score, Mean” value (Mice (C57BL/6) [1]; Day 8, 60 nM s.c. on Days 1, 5 and 9) was 0.17, the “Hair growth score, Mean” value (Mice (C57BL/6) [1]; Day 9, 60 nM s.c. on Days 1, 5 and 9) was 0.58 and the “Hair growth score, Mean” value (Mice (C57BL/6) [1]; Day 12, 60 nM s.c. on Days 1, 5 and 9) was 1.17. For the same substance, the “Hair growth score, Mean” value (Mice (C57BL/6) [1]; Day 13, 60 nM s.c. on Days 1, 5 and 9) was 1.17, the “Hair growth score, Mean” value (Mice (C57BL/6) [1]; Day 14, 60 nM s.c. on Days 1, 5 and 9) was 1.33 and the “Hair growth score, Mean” value (Mice (C57BL/6) [1]; Day 15, 60 nM s.c. on Days 1, 5 and 9) was 1.33. For the same substance, the “maximum effect relative to that observed with FOL-004” value (Mice (C57BL/6) [1]; hair growth score) was “less than 50%”.
For “wildtype mouse osteopontin: wildtype mouse osteopontin protein, comparator in Example A”, the “effect on hair growth” value (male wtC57BL/6N mice) was “no detectable effect on hair growth”.
In the case of “VDVPNGDISLAYGLR (Preferred 15-amino acid peptide (FOL-004))”, the “Follicle count in subcutis (no.)” value (Mice (C57BL/6) [2]; all animals) is reported as 6.20 ± 5.80 no, the Skin thickness (Mice (C57BL/6) [2]; all animals) is reported as 312.2 ± 15.60 and the “Follicle count in subcutis (no.)” value (Mice (C57BL/6) [2]; animals in anagen only) is reported as 29 ± 5.8 no. The Skin thickness (Mice (C57BL/6) [2]; animals in anagen only) was 312.2 ± 15.60, the “No. of animals showing hair growth” value (Mice (C57BL/6) [3]) was 5/5 and the “Skin colour (external)” value (Mice (C57BL/6) [3]) was “Black”. The “Skin colour (external): animals with this colour” value (Mice (C57BL/6) [3]) was “(5/5 animals)”, the “Black colour in peeled skin (day 16)” value (Mice (C57BL/6) [3]) was 1/5 and the “% anagen induction**” value (Mice (C57BL/6) [3]) was 20%. The “% anagen induction*” value (Mice (C57BL/6) [3]) was 100%, the “day from which hair growth was evident” value (Mice (C57BL/6) [4]) was 5 days and the “hair growth effect” value (Mice (C57BL/6) [4]) was “rapid hair growth; also recorded: particular fast onset of action”. The “Hair growth score, Mean” value (Mice (C57BL/6) [4]; Day 1) was 0.0, the “Hair growth score, Mean” value (Mice (C57BL/6) [4]; Day 2) was 0.0 and the “Hair growth score, Mean” value (Mice (C57BL/6) [4]; Day 5) was 1.7. The “Hair growth score, Mean” value (Mice (C57BL/6) [4]; Day 6) was 2.1, the “Hair growth score, Mean” value (Mice (C57BL/6) [4]; Day 7) was 2.4 and the “Hair growth score, Mean” value (Mice (C57BL/6) [4]; Day 8) was 2.5. For the same substance, the “Hair growth score, Mean” value (Mice (C57BL/6) [4]; Day 9) was 2.6, the “Hair growth score, Mean” value (Mice (C57BL/6) [4]; Day 12) was 2.7 and the “Hair growth score, Mean” value (Mice (C57BL/6) [4]; Day 13) was 2.7. The “Hair growth score, Mean” value (Mice (C57BL/6) [4]; Day 14) was 2.7, the “Hair growth score, Mean” value (Mice (C57BL/6) [4]; Day 15) was 2.9 and the “Hair growth score, Mean” value (Mice (C57BL/6) [4]; Day 16) was 3.0.
For “VDTYDGDISVVYGLR (Preferred 15-amino acid peptide) [FOL-005]”, the “Follicle count in subcutis (no.)” value (Mice (C57BL/6) [2]; all animals) was 34.80 ± 14.58 no, the Skin thickness (Mice (C57BL/6) [2]; all animals) was 348.80 ± 40.05 and the “Follicle count in subcutis (no.)” value (Mice (C57BL/6) [2]; animals in anagen only) was 58 ± 14.58 no. For the same substance, the Skin thickness (Mice (C57BL/6) [2]; animals in anagen only) was 348.80 ± 40.05, the “No. of animals showing hair growth” value (Mice (C57BL/6) [3]) was 5/5 and the “Skin colour (external)” value (Mice (C57BL/6) [3]) was “Black”. The “Skin colour (external): animals with this colour” value (Mice (C57BL/6) [3]) was “(5/5 animals)”, the “Black colour in peeled skin (day 16)” value (Mice (C57BL/6) [3]) was 3/5 and the “% anagen induction**” value (Mice (C57BL/6) [3]) was 60%. The “% anagen induction*” value (Mice (C57BL/6) [3]) was 100%, the “day from which hair growth was evident” value (Mice (C57BL/6) [4]) was 5 days and the “hair growth effect” value (Mice (C57BL/6) [4]) was “rapid hair growth; also recorded: particular fast onset of action”. For the same substance, the “Hair growth score, Mean” value (Mice (C57BL/6) [4]; Day 1) was 0.0, the “Hair growth score, Mean” value (Mice (C57BL/6) [4]; Day 2) was 0.0 and the Hair growth score (Mice (C57BL/6) [4]; Day 5, individual animal, 60 nM, 25 μl s.c. on Days 1, 5 and 9) was 2.0. For the same substance, the “Hair growth score, Mean” value (Mice (C57BL/6) [4]; Day 5) was 1.3, the “Hair growth score, Mean” value (Mice (C57BL/6) [4]; Day 6) was 1.7 and the “Hair growth score, Mean” value (Mice (C57BL/6) [4]; Day 7) was 1.9. For the same substance, the “Hair growth score, Mean” value (Mice (C57BL/6) [4]; Day 8) was 2.1, the “Hair growth score, Mean” value (Mice (C57BL/6) [4]; Day 9) was 2.3 and the “Hair growth score, Mean” value (Mice (C57BL/6) [4]; Day 12) was 2.7. The “Hair growth score, Mean” value (Mice (C57BL/6) [4]; Day 13) was 2.8, the “Hair growth score, Mean” value (Mice (C57BL/6) [4]; Day 14) was 2.8 and the “Hair growth score, Mean” value (Mice (C57BL/6) [4]; Day 15) was 3.0. For the same substance, the “Hair growth score, Mean” value (Mice (C57BL/6) [4]; Day 16) was 3.0.
